Key:
[1] = Antagonist activity at CCR2 in human THP1 cells assessed as inhibition of CCL2-induced chemotaxis in presence of 1% fetal bovine serum
[2] = Antagonist activity at CCR2 in human THP1 cells assessed as inhibition of CCL2-induced chemotaxis in presence of 1% human serum

Compound | Ki [1] [nM] | Ki [2] [nM]
O=C(O)c1ccccc1Oc1c(F)cc(C(F)(F)F)cc1NS(=O)(=O)c1ccc(Cl)cc1 | 63.1 | 12600
O=C(O)c1c(F)cccc1Oc1ccc(C(F)(F)F)cc1NS(=O)(=O)c1ccc(Cl)cc1 | 158 | 10000
O=C(O)c1ccccc1Oc1ccccc1NS(=O)(=O)c1ccc(Cl)cc1 | 398 | 398

Source: BindingDB's records for doi:10.1016/j.bmcl.2010.04.142 (Glaxosmithkline, 2010)
